Data: patent US9657351B2, “MRNA-based gene expression for personalizing patient cancer therapy with an MDM2 antagonist” (Hoffmann-La Roche Inc., priority 2013, dated 2017)
Several values for one entry are separate records, joined by “and”; a condition that tells them apart may be missing. Equal entries are not always repeated.

Legend:
Format in all cases: in vivo, human
[1] = test system: Ki-67-positive tumor cells; experiment: NP21280 solid tumor trial, tumor biopsy biomarker (Ki67); details: p=2.62×10−2
Experimental: The predictive mRNA signature is also evaluated in two solid tumor trials (FIG. 1). In trial NP21280 30 patients with pretreatment and C1D5 tumor biopsy samples are evaluated; and in NP22890 20 patients with pretreatment and C1D8 tumor biopsy samples are evaluated (Table 6). In both clinical trials, a biomarker package that enabled assessment of p53 pathway activation is assessed (p53 IHC, p21 IHC, MDM2 mRNA, and Ki67), MDM2 inhibition activates the P53 pathway and decreases cell proliferation.

P21 = experiment: NP21280 solid tumor trial, tumor biopsy biomarker (p21 IHC); details: p=2.32×10−3
Experimental: The predictive mRNA signature is also evaluated in two solid tumor trials (FIG. 1). […] In both clinical trials, a biomarker package that enabled assessment of p53 pathway activation is assessed (p53 IHC, p21 IHC, MDM2 mRNA, and Ki67), MDM2 inhibition activates the P53 pathway and decreases cell proliferation.

MDM2 mRNA = experiment: NO21279 pharmacodynamic response, MDM2 mRNA by quantitative real-time PCR in leukemia cells
Experimental: The performance of the MDM2 antagonist predictive mRNA response signature is tested in the clinical setting with specimens from the NO21279 leukemia trial (FIG. 1). 28 AML patients treated at the MTD are enrolled and completed pretreatment and C1D10 (cycle 1, day 10) sampling. […] The clinical endpoint in NO21279 was divided into 4 categories: Complete Response (CR), Morphologic Leukemia-Free State (MLFS), Hematologic Improvement (HI), and Progressive Disease (PD). Blood leukemia samples and bone marrow biopsy samples were collected at baseline screening, after a single dose (cycle 1 day 2, C1D2) and on last day of dosing (cycle 1, day 10, C1D10) and isolated via MACS® separation^11. The early pharmacodynamic effect of MDM2 antagonism in blood leukemia samples was assessed by measuring MDM2 RT PCR change between baseline and C1D10. Global gene expression profiles were generated for the peripheral blood leukemia cells and bone marrow biopsy samples obtained at baseline, C1D2 and C1D10.
MDM2 mRNA concentrations were assessed at Roche Molecular Systems by quantitative real-time PCR with 50 ng total RNA from MACs isolated leukemia cells from blood. TaqMan (Invitrogen, Carlsbad, Calif., USA) probes were designed to detect MDM2 mRNA and the reference mRNA, beta-glucuronidase, simultaneously using two different fluorescent reporters. Gene expression profiles were generated using Affymetrix U133 Plus 2.0 microarrays. Probset ID's for the each of the four genes on said U133 Plus 2.0 microarray are: 209375_s_at (for XPC); 205386_s_at and 211832_s_at (MDM2); 211692_s_at (BBC3); 207039_at and 211156_at (CDKN2A). […] The predictive patient signature score according to the present invention is then calculated using the following equation: patient signature score=GMDM2+GXPC+GBBC3−GCDKN2A. […] For example, for the patient data reported in Table 9 (Example 5), G is log 2 of the mRNA probeset expression of the relevant gene as measured with Affymetrix U133 Plus 2.0 microarrays.

**Q.** Which results are given for `CCOc1cc(C(C)(C)C)ccc1C1=N[C@@](C)(c2ccc(Cl)cc2)[C@@](C)(c2ccc(Cl)cc2)N1C(=O)N1CCN(CCCS(C)(=O)=O)CC1` [COMPOUND A]?
**A.** Ki-67-positive tumor cells change from baseline [1]: decreased; P21 concentration change from baseline (P21): significantly increase; median MDM2 mRNA expression increase over baseline (MDM2 mRNA; C1D10 vs baseline, IQR 1.62-4.59, NO21279): 2.46 times; MDM2 mRNA (RT-PCR) fold change over baseline (C1D10), median increase (MDM2 mRNA; all patients, IQR 1.62-4.59): 2.46x (IQR:; MDM2 mRNA (RT-PCR) fold change over baseline (C1D10) (MDM2 mRNA; individual AML patients (no. 1-28), NO21279, blood leukemia cells, listed as RG7112): 2.23 fold and 5.67 fold and 5.05 fold and 9.66 fold and 1.79 fold and 23.00 fold and 2.01 fold and 1.72 fold and 5.07 fold and 3.20 fold and 4.35 fold and 1.27 fold and 2.51 fold and 0.96 fold and 1.69 fold and 2.26 fold and 1.52 fold and 3.88 fold and 2.65 fold and 5.11 fold and 9.46 fold and 1.00 fold and 1.59 fold and 1.67 fold and 3.00 fold
